Test results from US20230303613A1, “3′3′ CYCLIC DINUCLEOTIDES WITH AN ALKENYLENE” (Institute of Organic Chemistry and Biochemistry AS CR, v.v.i, priority 2020, published 2023).
Like-named read-outs stand apart in the source and are kept apart here.

What was measured:
WT STING = WT STING (Homo sapiens, UniProt Q86WV6, H232R); experiment: 293T WT STING standard reporter assay; assay type: cell-based; conditions: 293T wtSTING-FL cells; 7 hours with compound, no digitonin; ISRE firefly luciferase reporter
Chain of WT STING (Q86WV6 whole entry H232R): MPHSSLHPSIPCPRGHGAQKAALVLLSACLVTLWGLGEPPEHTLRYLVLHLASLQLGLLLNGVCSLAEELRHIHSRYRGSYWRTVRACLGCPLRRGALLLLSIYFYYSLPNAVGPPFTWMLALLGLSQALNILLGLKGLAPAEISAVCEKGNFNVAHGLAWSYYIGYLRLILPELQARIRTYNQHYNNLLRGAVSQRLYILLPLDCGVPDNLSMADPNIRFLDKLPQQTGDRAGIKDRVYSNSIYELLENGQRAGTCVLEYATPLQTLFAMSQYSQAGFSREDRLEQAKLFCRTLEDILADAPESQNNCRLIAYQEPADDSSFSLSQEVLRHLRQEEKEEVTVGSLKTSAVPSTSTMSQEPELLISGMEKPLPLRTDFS
Excerpt: Two complementary oligonucleotides of the sequence […] […] […] […] […] The oligonucleotides were mixed in equal molar amounts, hybridized, and cleaved by restriction endonucleases HindIII (cat. #. R0104S, NEB, Ipswich, USA) and BglII (cat. # R0144S, NEB, Ipswich, USA). Ultimately, they were ligated into plasmid pGL4.27 (cat. # E6651, Promega, Madison, USA) linearized with the same enzymes. As result the sequence with four ISRE sites was placed upstream of the minimum promoter of firefly luciferase reporter gene.
After 5 minutes incubation at room temperature (RT), 250 µL of the mixture was added dropwise to the cells in one well. Cells were incubated 36 hours at 37° C. with 5% CO2, and then detached with 0.05% Trypsin and 0.22 g/L EDTA (both cat. # L0941, Biowest, Riverside, USA).
Transfected cells were seeded onto poly-D-lysine coated six well plates at density 50,000 cells per 1 cm^2 in DMEM medium with high glucose containing 10% heat inactivated FBS, 30 µg/mL blasticidin (cat. # ant-bl-05, InvivoGen, San Diego, USA), 0.06 mg/ml Penicillin G and 0.1 mg/ml Streptomycin Sulfate (both cat. #. L0018, Biowest, Riverside, USA). The medium was replenished every 3 - 4 days until visible colonies of cells resistant to blasticidin were formed.
Blasticidin resistant cells stably expressing WT STING were further transfected with […] plasmid following the same procedure as described above. […] Homogeneous culture of stably double transfected cells was prepared by limiting dilution of cells in 96 well plates and wells with cells were selected that originated from a single cell.
The medium was removed next day and three-fold serial dilutions of compounds in 100 µl medium were added to the cells. The plates with cells were incubated for 7 hours at 37° C. with 5% CO2. After 50 µl of the medium was removed, 30 µl of ONE-Glo^Tm Luciferase Assay System reagent (cat. # E6120, Promega, Madison, USA) was added to each well and luminescence was read on Synergy H1 (Biotek, Winooski, USA).

[1] = tested on: peripheral blood mononuclear cell (PBMC); experiment: Peripheral blood mononuclear cell assay; assay type: cell-based; conditions: 1h with compound, washed, 15 hour incubation
Procedure: Selected compounds were tested in an in vitro peripheral blood mononuclear cell (PBMC) assay. Freshly isolated PBMCs were seeded into U-shaped shaped 96-well plates at desity 500,000 cells per well in 50 µl of RPMI 1640 medium supplemented with 10% heat inactivated FBS. Serially dilluted tested compounds were added to wells in 50 µl of cultivation medium and cell were incubated with compounds for 1h at 37° C. with 5% CO2. Plates with cells were then spun 500 g for 5 minutes and medium was removed. Cells were washed twice with the cell culture medium by the use of centrifugation and gently resuspended in 100 µl medium without compounds. After 15 hour incubation at 37° C. with 5% CO2, the cell culture medium was collected and the levels of interferon-alpha (INF-α), interferon-gamma (INF-γ) and tumor necrosis factor-alpha (TNF-α) were determined with ProcartaPlex Assays (ThermoFisher, Waltham, USA) and MAGPIX System (Merck KGaA, Darmstadt, Germany).

[2] = IFN-α level in medium, read-out: PBMC EC50 IFN-α
[3] = TNF-α level in medium, read-out: PBMC EC50 TNF-α
[4] = PBMC, IFN-γ level in medium, read-out: PBMC EC50 IFN-γ
[5] = PBMC, IFN-α level in medium, read-out: PBMC EC50 IFN-α
[6] = PBMC, TNF-α level in medium, read-out: PBMC EC50 TNF-α

Row | Compound | EC50 (WT STING) [µM] | other results
1 | CCC(C)(C)C(=O)OCOP1(=O)/C=C/[C@H]2O[C@@H](n3cnc4c(N)ncnc43)[C@H](F)[C@@H]2OP(=O)(OCOC(=O)C(C)(C)CC)OC[C@H]2O[C@@H](n3cnc4c(N)ncnc43)[C@H](F)[C@@H]2O1 (single isomer, unassigned) [Compound 84c] | 0.007 | EC50 [1, 2]: 0.03 µM; EC50 [1, 3]: 0.01 µM
2 | CCCCCCCC(=O)OCOP1(=O)/C=C/[C@H]2O[C@@H](n3cnc4c(N)ncnc43)[C@H](F)[C@@H]2OP(=O)(OCOC(=O)CCCCCCC)OC[C@H]2O[C@@H](n3cnc4c(N)ncnc43)[C@H](F)[C@@H]2O1 (single isomer, unassigned) [Compound 83a] | 0.023 | –
3 | CCCCCCCC(=O)OCOP1(=O)/C=C/[C@H]2O[C@@H](n3cnc4c(N)ncnc43)[C@H](F)[C@@H]2OP(=O)(OCOC(=O)CCCCCCC)OC[C@H]2O[C@@H](n3cnc4c(N)ncnc43)[C@H](F)[C@@H]2O1 (single isomer, unassigned) [Compound 83b] | 0.003 | –
4 | CC(C)OC(=O)OCOP1(=O)/C=C/[C@H]2O[C@@H](n3cnc4c(N)ncnc43)[C@H](F)[C@@H]2OP(=O)(OCOC(=O)OC(C)C)OC[C@H]2O[C@@H](n3cnc4c(N)ncnc43)[C@H](F)[C@@H]2O1 (stereo partly drawn) [Compound 81a, {[(1R,6R,8R,9R,10R,13E,15R,17R,18R)-8,17-bis(6-amino-9H-purin-9-yl)-9,18-difluoro-3,12-dioxo-3-({[(propan-2-yloxy)carbonyl]oxy}methoxy)-2,4,7,11,16-pentaoxa-3λ^5,12λ^5-diphosphatricyclo[13.3.0.0^6,^10]octadec-13-en-12-yl]oxy}methyl propan-2-yl carbonate] | 9.5 | –
5 | CCC(C)(C)C(=O)OCOP1(=O)/C=C/[C@H]2O[C@@H](n3cnc4c(N)ncnc43)[C@H](F)[C@@H]2OP(=O)(OCOC(=O)C(C)(C)CC)OC[C@H]2O[C@@H](n3cnc4c(N)ncnc43)[C@H](F)[C@@H]2O1 (single isomer, unassigned) [Compound 84a] | 0.15 | –
6 | CCC(C)(C)C(=O)OCOP1(=O)/C=C/[C@H]2O[C@@H](n3cnc4c(N)ncnc43)[C@H](F)[C@@H]2OP(=O)(OCOC(=O)C(C)(C)CC)OC[C@H]2O[C@@H](n3cnc4c(N)ncnc43)[C@H](F)[C@@H]2O1 (single isomer, unassigned) [Compound 84b] | 0.01 | EC50 [1, 2]: 0.08 µM; EC50 [1, 3]: 0.07 µM; EC50 [1, 4]: 0.06 µM
7 | CC(C)(C)C(=O)OCOP1(=O)/C=C/[C@H]2O[C@@H](n3cnc4c(N)ncnc43)[C@H](F)[C@@H]2OP(=O)(OCOC(=O)C(C)(C)C)OC[C@H]2O[C@@H](n3cnc4c(N)ncnc43)C[C@@H]2O1 (stereo partly drawn) [Compound 86, {[(1R,6R,8R,10S,13E,15R,17R,18R)-8,17-bis(6-amino-9H-purin-9-yl)-3-{[(2,2-dimethylpropanoyl)oxy]methoxy}-18-fluoro-3,12-dioxo-2,4,7,11,16-pentaoxa-3λ^5,12λ^5-diphosphatricyclo[13.3.0.0^6,^10]octadec-13-en-12-yl]oxy}methyl 2,2-dimethylpropanoate] | 0.01 | EC50 [1, 5]: 0.6 µM; EC50 [1, 4]: 1.6 µM; EC50 [1, 6]: 0.8 µM
8 | CC(C)(C)C(=O)OCOP1(=O)/C=C/[C@H]2O[C@@H](n3cnc4c(N)ncnc43)[C@H](F)[C@@H]2OP(=O)(OCOC(=O)C(C)(C)C)OC[C@H]2O[C@@H](n3cnc4c(N)ncnc43)[C@H](F)[C@@H]2O1 (single isomer, unassigned) [Compound 80c] | 0.012 | EC50 [1, 5]: 0.1 µM; EC50 [1, 4]: 0.18 µM; EC50 [1, 6]: 0.1 µM
9 | CC1(C(=O)OCOP2(=O)/C=C/[C@H]3O[C@@H](n4cnc5c(N)ncnc54)[C@H](F)[C@@H]3OP(=O)(OCOC(=O)C3(C)CCCCC3)OC[C@H]3O[C@@H](n4cnc5c(N)ncnc54)[C@H](F)[C@@H]3O2)CCCCC1 (single isomer, unassigned) [Compound 82a] | 0.2 | –
10 | CC(C)(C)C(=O)OCOP1(=O)/C=C/[C@H]2O[C@@H](n3cnc4c(N)ncnc43)[C@H](F)[C@@H]2OP(=O)(OCOC(=O)C(C)(C)C)OC[C@H]2O[C@@H](n3cnc4c(N)ncnc43)[C@H](F)[C@@H]2O1 (single isomer, unassigned) [Compound 80a] | 0.084 | –
11 | {[(1R,6R,8R,9R,10R,13E,15R,17R,18R)-8,17-bis(6-amino-9H-purin-9-yl)-9,18-difluoro-3,12-dioxo-3-({[(propan-2-yloxy)carbonyl]oxy}methoxy)-2,4,7,11,16-pentaoxa-3λ^5,12λ^5- diphosphatricyclo[13.3.0.0^6,^10]octadec-13-en-12-yl]oxy}methyl propan-2-yl carbonate [Compound 81b] | 1.2 | –
12 | CCCCCCCC(=O)OCOP1(=O)/C=C/[C@H]2O[C@@H](n3cnc4c(N)ncnc43)[C@H](F)[C@@H]2OP(=O)(OCOC(=O)CCCCCCC)OC[C@H]2O[C@@H](n3cnc4c(N)ncnc43)[C@H](F)[C@@H]2O1 (single isomer, unassigned) [Compound 83c] | 0.003 | –
13 | CC(C)(C)C(=O)OCOP1(=O)/C=C/[C@H]2O[C@@H](n3cnc4c(N)ncnc43)[C@H](F)[C@@H]2OP(=O)(OCOC(=O)C(C)(C)C)OC[C@H]2O[C@@H](n3cnc4c(N)ncnc43)[C@H](F)[C@@H]2O1 (single isomer, unassigned) [Compound 80b] | 0.022 | –
14 | CC1(C(=O)OCOP2(=O)/C=C/[C@H]3O[C@@H](n4cnc5c(N)ncnc54)[C@H](F)[C@@H]3OP(=O)(OCOC(=O)C3(C)CCCCC3)OC[C@H]3O[C@@H](n4cnc5c(N)ncnc54)[C@H](F)[C@@H]3O2)CCCCC1 (single isomer, unassigned) [Compound 82b] | 0.08 | –

Continued, in another order:

Row | EC50 (WT STING) [µM] | Compound | other results
15 | 0.26 | CC(C)(C)C(=O)OCOP1(=O)/C=C/[C@H]2O[C@@H](n3cnc4c(N)ncnc43)C[C@@H]2OP(=O)(OCOC(=O)C(C)(C)C)OC[C@H]2O[C@@H](n3cnc4c(N)ncnc43)[C@H](F)[C@@H]2O1 (single isomer, unassigned) [Compound 87c] | –
16 | 12.1 | CC(C)(C)C(=O)OCOP1(=O)/C=C/[C@H]2O[C@@H](n3cnc4c(N)ncnc43)C[C@@H]2OP(=O)(OCOC(=O)C(C)(C)C)OC[C@H]2O[C@@H](n3cnc4c(N)ncnc43)[C@H](F)[C@@H]2O1 (single isomer, unassigned) [Compound 87a] | –
17 | 0.003 | CCCCCCCCCCCC(=O)OCOP1(=O)/C=C/[C@H]2O[C@@H](n3cnc4c(N)ncnc43)[C@H](F)[C@@H]2OP(=O)(OCOC(=O)CCCCCCCCCCC)OC[C@H]2O[C@@H](n3cnc4c(N)ncnc43)[C@H](F)[C@@H]2O1 (single isomer, unassigned) [Compound 85b] | –
18 | 0.0004 | CCCCCCCCCCCC(=O)OCOP1(=O)/C=C/[C@H]2O[C@@H](n3cnc4c(N)ncnc43)[C@H](F)[C@@H]2OP(=O)(OCOC(=O)CCCCCCCCCCC)OC[C@H]2O[C@@H](n3cnc4c(N)ncnc43)[C@H](F)[C@@H]2O1 (single isomer, unassigned) [Compound 85a] | EC50 [1, 5]: 0.02 µM; EC50 [1, 4]: 0.01 µM; EC50 [1, 6]: 0.02 µM
19 | 0.67 | CC(C)(C)C(=O)OCOP1(=O)/C=C/[C@H]2O[C@@H](n3cnc4c(N)ncnc43)C[C@@H]2OP(=O)(OCOC(=O)C(C)(C)C)OC[C@H]2O[C@@H](n3cnc4c(N)ncnc43)[C@H](F)[C@@H]2O1 (single isomer, unassigned) [Compound 87b] | –
